The values that follow come from ChEMBL document CHEMBL5634071, “Fluorine in anti-HIV drugs approved by FDA from 1981 to 2023” (Eur J Med Chem, 2023).

Data set [1] can be described thus: Binding affinity to HIV protease assessed as inhibition constant. Set-up: species or system Human immunodeficiency virus.
Data set [2] deals with Human immunodeficiency virus. As to the kind of experiment: Antiviral activity against HIV. Type of data set: functional, organism-based. As to conditions: Human immunodeficiency virus 1.
Data set [3] has as its system Human immunodeficiency virus 1. The experiment in a line: Antiviral activity against HIV-1 IIIB infected in human H9 cells. Type of data set: functional, organism-based. Conditions: Human immunodeficiency virus 1, IIIB.
Data set [4] relates to Human immunodeficiency virus 1. As to the kind of experiment: Antiviral activity against HIV-1 infected in lymphoblastoid cell (unknown origin). Conditions: Human immunodeficiency virus 1, Lymphoblastoid cell.
The test system of data set [5] is Human immunodeficiency virus 1. The experiment in a line: Antiviral activity against HIV-1 infected in human HeLa-MAGI-CCR5 cells. As to conditions: Human immunodeficiency virus 1, HeLa-MAGI-CCR5.
The subject of data set [6] is Human immunodeficiency virus 1. As to the kind of experiment: Antiviral activity against HIV-1 infected in PBMC (unknown origin). As to conditions: Human immunodeficiency virus 1, PBMC.
Data set [7] can be described thus: Cytotoxicity against lymphoblastoid cell (unknown origin). Conditions: lymphoblastoid cells.
Data set [8] can be described thus: Cytotoxicity against human HeLa-MAGI-CCR5 cells.
Data set [9] is described as follows: Cytotoxicity against PBMC (unknown origin).
Data set [10] has as its system Human immunodeficiency virus 1. The experiment in a line: Antiviral activity against HIV-1 LAV infected in human CEM cells. Type of data set: functional, organism-based. Conditions: Human immunodeficiency virus 1, LAV, CCRF-CEM.
Data set [11] in a line: Cytotoxicity against human CEM cells measured after 6 days. Conditions: CEM cells (CCRF-CEM).
A short description of data set [12]: Oral bioavailability in rat. As to conditions: in vivo.
Data set [13] in a line: Oral bioavailability in mouse. As to conditions: in vivo.
Data set [14] can be described thus: Oral bioavailability in cynomolgus monkey. Conditions: in vivo.
Data set [15] deals with Human immunodeficiency virus 1. As to the kind of experiment: Antiviral activity against VSV-G pseudotyped HIV-1 infected in HEK293T cells assessed as inhibition of early stage viral replication preincubated with cells for 30 mins followed by viral infection for 3 hrs and measured 48 hrs after media replacement with compound by luciferase assay. Type of data set: functional, organism-based. Conditions: Human immunodeficiency virus 1, HEK-293T.

Data set [16] has as its system Human immunodeficiency virus 1. As to the kind of experiment: Antiviral activity HIV-1 infected in HEK293T cells assessed as inhibition of late stage viral replication. Type of data set: functional, organism-based. Conditions: Human immunodeficiency virus 1, HEK-293T.
Data set [17] can be described thus: Cytotoxicity against HEK293T cells incubated for 72 hrs by MTT assay. Type of data set: toxicity, cell-based, HEK-293T. Conditions: human. A general note: Tetrazolium dyes change colour on reduction, which living cells bring about.
For data set [18], the system named is Human immunodeficiency virus 1. As to the kind of experiment: Antiviral activity against HIV-1 infected in human PBMC. Type of data set: functional, organism-based. As to conditions: Human immunodeficiency virus 1, PBMC.
Data set [19] concerns the target Human immunodeficiency virus type 1 Gag protein (Human immunodeficiency virus 1, UniProt Q77YG1). As to the kind of experiment: Binding affinity to HIV1 Gag assessed as dissociation constant.
The nature of data set [20]: Metabolic stability in rhesus monkey hepatocytes assessed as half-life. Type of data set: ADME, cell-based, Macaca mulatta, Hepatocyte.
For data set [21], the target named is Human immunodeficiency virus type 1 protease (Human immunodeficiency virus 1, UniProt Q72874). As to the kind of experiment: Inhibition of HIV-1 protease expressed in Escherichia coli incubated for 90 mins by fluorescence based analysis.
The subject of data set [22] is Human immunodeficiency virus 1. As to the kind of experiment: Antiviral activity against HIV-1 infected in human MT4 cells assessed as reduction in virus induced cytopathic effect. As to conditions: Human immunodeficiency virus 1, MT4. Type of data set: functional, organism-based. In general terms: Protection from cytopathic effect is a common read-out in antiviral testing.

Data set [23] relates to Human immunodeficiency virus 1. As to the kind of experiment: Antiviral activity against HIV-1 LAV infected in human CEM-SS cells assessed as reduction in virus-induced cytopathic effect by XTT assay. Type of data set: functional, organism-based. As to conditions: Human immunodeficiency virus 1, LAV.
The subject of data set [24] is Human immunodeficiency virus 1. The experiment in a line: Antiviral activity against HIV-1 SK-1 infected in human CEM-SS cells assessed as reduction in virus-induced cytopathic effect by XTT assay. Type of data set: functional, organism-based. Conditions: Human immunodeficiency virus 1, SK-1, CEM-SS.
Data set [25] relates to Human immunodeficiency virus 1. The experiment in a line: Antiviral activity against HIV-1 214 infected in human CEM-SS cells assessed as reduction in virus-induced cytopathic effect by XTT assay. Type of data set: functional, organism-based. As to conditions: Human immunodeficiency virus 1, 214, CEM-SS.
In data set [26] the test system is Human immunodeficiency virus 1. As to the kind of experiment: Antiviral activity against HIV-1 205 infected in human CEM-SS cells assessed as reduction in virus-induced cytopathic effect by XTT assay. Conditions: Human immunodeficiency virus 1, 205, CEM-SS. Type of data set: functional, organism-based.
The test system of data set [27] is Human immunodeficiency virus 1. As to the kind of experiment: Antiviral activity against HIV-1 G infected in human CEM-SS cells assessed as reduction in virus-induced cytopathic effect by XTT assay. Type of data set: functional, organism-based. As to conditions: Human immunodeficiency virus 1, G.
In data set [28] the test system is Human immunodeficiency virus 1. As to the kind of experiment: Antiviral activity against HIV-1 TP-1 infected in human CEM-SS cells assessed as reduction in virus-induced cytopathic effect by XTT assay. Type of data set: functional, organism-based. As to conditions: Human immunodeficiency virus 1, TP-1, CEM-SS.
Data set [29] relates to Human immunodeficiency virus 1. The experiment in a line: Antiviral activity against HIV-1 KELL infected in human CEM-SS cells assessed as reduction in virus-induced cytopathic effect by XTT assay. Type of data set: functional, organism-based. As to conditions: Human immunodeficiency virus 1, KELL.
Data set [30] deals with Human immunodeficiency virus 1. The experiment in a line: Antiviral activity against HIV-1 PM16 infected in human CEM-SS cells assessed as reduction in virus-induced cytopathic effect by XTT assay. Type of data set: functional, organism-based. Conditions: Human immunodeficiency virus 1, PM16, CEM-SS.
The nature of data set [31]: Inhibition of HIV integrase strand transfer activity. Set-up: species or system Human immunodeficiency virus.
Data set [32] in a line: Inhibition of HIV-1 integrase by multiple well plate integration assay. More on the design: species or system Human immunodeficiency virus.
In data set [33] the test system is Human immunodeficiency virus 1. The experiment in a line: Antiviral activity against HIV-1 IIIB infected in human MT4 cells incubated for 7 days by ELISA. Type of data set: functional, organism-based. Conditions: Human immunodeficiency virus 1, IIIB, MT4, 168 h. For orientation: ELISA stands for enzyme-linked immunosorbent assay.

One may read the Ki as the equilibrium dissociation constant of an inhibitor or competing ligand from its target. What is called IC50 is the concentration that gives 50% inhibition. The term IC90 denotes the point of the concentration-response curve where the effect stands at 90%. For `CCC[C@@]1(CCc2ccccc2)CC(O)=C([C@H](CC)c2cccc(NS(=O)(=O)c3ccc(C(F)(F)F)cn3)c2)C(=O)O1`, the Ki in data set [1] was determined as 8 nM. Besides, the IC50 in [2] amounted to 30 nM. In data set [3], this compound returned an IC50 of 30 nM and an IC90 of 100 nM.
As usually defined, the CC50 is the concentration at which the toxic effect on the cells reaches its halfway point. Usually bioavailability stands for the share of a dose that reaches the circulation, judged against a reference dose that is usually intravenous. As for `Nc1nc(=O)n([C@@H]2CS[C@H](CO)O2)cc1F` [EMTRICITABINE], the IC50 in [4] was 1 nM; in data set [5] it was 1 nM; in data set [6], 1 nM; in [10] it was 9 nM. The CC50 in data set [7], in data set [8] and in data set [9] was above 200000 nM in each case. In addition, the CC50 at 144 h in data set [11] is above 100000 nM. For the same compound, the bioavailability in [12], in [13] and in [14] was around 58% in each case.
A word on the Kd: it is a measure of binding affinity in units of concentration. By half-life is commonly meant how long it takes for the measured level to halve. With `CC(C)(C#Cc1ccc(-c2ccc(Cl)c3c(NS(C)(=O)=O)nn(CC(F)(F)F)c23)c([C@H](Cc2cc(F)cc(F)c2)NC(=O)Cn2nc(C(F)(F)F)c3c2C(F)(F)[C@@H]2C[C@H]32)n1)S(C)(=O)=O`, the IC50 in data set [15] came out at 0.055 nM; in [16] it was 0.314 nM; in data set [18] it was 0.05 nM. Also, the CC50 at 72 h in data set [17] is above 50000 nM. In addition, the Kd in data set [19] is 1.1 nM. Further, in data set [20], the half-life is 202 h.
In turn, `CCCC(CCc1ccccc1)c1cc(O)c(C(CC)c2ccccc2)c(=O)o1` (centres undefined) gave a Ki in data set [21] of 35 nM.
Turning to `Cc1c(Sc2ccccc2)n(COCCO)c(=O)[nH]c1=O` [HEPT], the IC50 in data set [22] came out at 7000 nM.
Take `O=S1(c2ccccc2)=NC(=S)Nc2ccccc21` (centres undefined): the IC50 in data set [23], in [24], in data set [25], in data set [26], in data set [27] and in data set [28] was 950 nM throughout. Besides, the IC50 in [29] and in data set [30] was 950 nM each time.
Turning to `O=C(NCc1c(F)cc(F)cc1F)c1cn2c(c(O)c1=O)C(=O)N1[C@H]3CC[C@H](C3)O[C@@H]1C2` [BICTEGRAVIR], in data set [31], the IC50 worked out at 2.4 nM.
`O=C(O)/C(O)=C/C(=O)C1C=Nc2ccc(Cl)cc21` (centres undefined): in [32], the midpoint of inhibition, the IC50, lay at 2300 nM.
`CCC(Cc1ccccc1)c1cc(O)c(C(CC)c2ccccc2)c(=O)o1` (centres undefined) displayed an IC50 in data set [33] of 3000 nM.
